Data published in the supplement of paper PMC10307832.

The cell lines below were run with CCOC(=O)CCNc1cc(N2CCc3ccccc3CC2)nc(-c2ccccn2)n1 [GSK-J4] (assay: relative viability (nuclei count vs DMSO), 5 days (fraction); higher = more cells survive). Details: 0.5 µM.
How it was run: (§1)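 Five library-drug doses, separated by factors of √10, were pinned into 1536-well plates holding lung cancer cell lines after an overnight stay at 37 °C. Cells were fixed, permeabilised and Hoechst-stained in one step after 5 days without medium change, then imaged at 4×. Viability compares treated-well with vehicle-well nuclei, counted in MetaXpress, as a median across plates. Passing plates had control CV below 25% and at least one doubling.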

Cell Line	relative viability
NCI-H2126	0.973
HCC-44	1.01
NCI-H1734	0.9
NCI-H650	0.931
LK-2	1.07
NCI-H2228	0.904
NCI-H1944	0.939
HARA	1.06
Calu-6	0.979
COR-L23	0.965
LXF-289	1.02
EBC-1	0.817
NCI-H358	0.981
NCI-H322M	1.05
LC-2-ad	0.988
HCC-827	1.01
A549	0.981
NCI-H1299	0.982
CAL-12T	0.94
HCC-15	0.929
HOP-62	1
NCI-H460	0.957
LU99A	0.819
NCI-H2085	1.02
A-427	1
NCI-H520	0.985
NCI-H838	1.04
NCI-H1792	0.932
NCI-H596	1.04
NCI-H3122	0.941

Same assay, conditions: 1.581 µM

Cell Line	relative viability
NCI-H23	0.761
EPLC-272H	0.678
NCI-H2126	0.944
HCC-44	0.864
NCI-H1734	0.909
NCI-H650	0.653
LK-2	0.886
NCI-H2228	1.04
NCI-H1944	0.874
HARA	0.959
Calu-6	0.945
COR-L23	0.894
LXF-289	0.903
EBC-1	0.892
NCI-H358	0.843
NCI-H322M	1.04

Cell Line	relative viability
LC-2-ad	0.807
HCC-827	0.902
A549	0.731
NCI-H1299	0.952
CAL-12T	0.838
HCC-15	0.716
HOP-62	0.835
NCI-H460	0.8
LU99A	0.872
NCI-H2085	0.953
NCI-H520	0.621
NCI-H838	0.895
NCI-H1792	0.606
NCI-H596	0.833
NCI-H3122	0.904

Same assay, conditions: 5 µM

Cell Line	relative viability
NCI-H23	0.814
EPLC-272H	0.93
NCI-H2126	1.02
HCC-44	0.861
NCI-H1734	0.686
NCI-H650	0.494
LK-2	1.22
NCI-H2228	1.15
NCI-H1944	0.828
Calu-6	0.941
LXF-289	0.967
EBC-1	0.96
NCI-H358	0.977
NCI-H322M	1.1
LC-2-ad	0.787
HCC-827	0.839
A549	0.862
NCI-H1299	0.877
CAL-12T	1.05
HCC-15	0.927
HOP-62	1.04
NCI-H460	0.767
NCI-H2085	0.884
A-427	0.766
NCI-H520	0.857
NCI-H838	0.635
NCI-H1792	0.925
NCI-H596	0.92
NCI-H3122	0.955

Same assay, conditions: 15.81 µM

Cell Line	relative viability
NCI-H23	0.803
EPLC-272H	0.814
NCI-H2126	0.906
HCC-44	1.02
NCI-H1734	0.765
NCI-H650	0.832
LK-2	0.756
NCI-H2228	0.997
NCI-H1944	0.734
HARA	0.881
Calu-6	0.983
COR-L23	1
LXF-289	1.02
EBC-1	0.961
NCI-H358	0.819
NCI-H322M	0.839

Cell Line	relative viability
LC-2-ad	0.933
HCC-827	1
A549	0.838
NCI-H1299	0.998
CAL-12T	0.93
HCC-15	0.895
HOP-62	0.987
NCI-H460	0.981
LU99A	0.884
NCI-H2085	0.924
A-427	0.865
NCI-H520	0.702
NCI-H838	0.887
NCI-H1792	0.697
NCI-H596	0.889
NCI-H3122	1.05

Same assay, conditions: 50 µM

Cell Line	relative viability
NCI-H23	0.742
EPLC-272H	0.734
NCI-H2126	0.83
HCC-44	1.01
NCI-H1734	0.807
NCI-H650	0.751
LK-2	1
NCI-H2228	0.948
NCI-H1944	0.931
HARA	1.05
Calu-6	1.01
COR-L23	0.852
LXF-289	0.983
EBC-1	0.668
NCI-H358	0.807
NCI-H322M	0.818

Cell Line	relative viability
LC-2-ad	0.903
HCC-827	1.02
A549	0.924
NCI-H1299	1
CAL-12T	0.834
HCC-15	0.767
HOP-62	0.749
NCI-H460	1.01
LU99A	0.756
NCI-H2085	0.955
A-427	0.37
NCI-H520	0.853
NCI-H838	0.883
NCI-H1792	0.832
NCI-H596	0.903
NCI-H3122	1.02

The cell lines below were run with CN1CCC(CC1)OC2=CC(=C(C=C2)NC3=NC=C4C(=N3)N(C(=O)N4C)C5CCCC5)OC [AZ3146] in the same assay as above. Details: 0.08 µM.
How it was run: as §1

Cell Line	relative viability
NCI-H23	1.13
EPLC-272H	0.789
NCI-H2126	0.972
HCC-44	0.969
NCI-H1734	0.96
NCI-H650	0.776
LK-2	0.743
NCI-H2228	1.04
NCI-H1944	0.777
HARA	0.808
Calu-6	0.964
COR-L23	0.928
LXF-289	0.944
EBC-1	0.915
NCI-H358	0.977
NCI-H322M	0.872

Cell Line	relative viability
LC-2-ad	0.895
HCC-827	1.04
A549	0.852
NCI-H1299	0.987
CAL-12T	1.03
HCC-15	0.98
HOP-62	0.958
NCI-H460	0.94
LU99A	0.783
NCI-H2085	1
A-427	0.963
NCI-H520	0.875
NCI-H838	0.994
NCI-H1792	0.759
NCI-H596	0.985
NCI-H3122	0.979

Same assay, conditions: 0.253 µM

Cell Line	relative viability
NCI-H23	1.06
EPLC-272H	0.895
NCI-H2126	1
HCC-44	0.917
NCI-H1734	1.09
NCI-H650	0.822
LK-2	0.782
NCI-H2228	0.973
NCI-H1944	0.919
HARA	0.902
Calu-6	1.03
COR-L23	1.03
LXF-289	0.991
EBC-1	0.938
NCI-H358	0.923
NCI-H322M	0.927

Cell Line	relative viability
LC-2-ad	1.04
HCC-827	0.998
A549	0.988
NCI-H1299	0.995
CAL-12T	0.978
HCC-15	1.05
HOP-62	0.986
NCI-H460	1.01
LU99A	1.04
NCI-H2085	0.987
A-427	1
NCI-H520	0.971
NCI-H838	0.939
NCI-H1792	0.776
NCI-H596	0.841
NCI-H3122	1

Same assay, conditions: 0.8 µM

Cell Line	relative viability
NCI-H23	0.959
EPLC-272H	0.92
NCI-H2126	0.99
HCC-44	1.09
NCI-H1734	0.954
NCI-H650	0.867
LK-2	0.961
NCI-H2228	1.1
NCI-H1944	1.07
HARA	1.01
Calu-6	0.948
COR-L23	1.03
LXF-289	0.989
EBC-1	0.884
NCI-H358	0.873
NCI-H322M	0.823

Cell Line	relative viability
LC-2-ad	0.979
HCC-827	0.987
A549	1.03
NCI-H1299	0.996
CAL-12T	1.07
HCC-15	0.993
HOP-62	0.98
NCI-H460	1.02
LU99A	0.989
NCI-H2085	0.972
A-427	1.01
NCI-H520	0.832
NCI-H838	0.914
NCI-H1792	0.93
NCI-H596	0.931
NCI-H3122	1.02

Same assay, conditions: 2.53 µM

Cell Line	relative viability
NCI-H23	1.05
EPLC-272H	0.992
NCI-H2126	1.06
HCC-44	1.02
NCI-H1734	1.04
NCI-H650	1.02
LK-2	1.08
NCI-H2228	0.995
NCI-H1944	1.03
HARA	1.07
Calu-6	0.948
COR-L23	0.974
LXF-289	1.02
EBC-1	0.979
NCI-H358	1.1
NCI-H322M	0.958

Cell Line	relative viability
LC-2-ad	0.967
HCC-827	0.939
A549	0.952
NCI-H1299	1.02
CAL-12T	1.09
HCC-15	1.03
HOP-62	1.03
NCI-H460	0.997
LU99A	0.964
NCI-H2085	0.97
A-427	1.04
NCI-H520	1.04
NCI-H838	0.963
NCI-H1792	0.841
NCI-H596	0.979
NCI-H3122	0.984

Same assay, conditions: 8 µM

Cell Line	relative viability
NCI-H23	0.758
EPLC-272H	0.969
NCI-H2126	0.919
HCC-44	0.89
NCI-H1734	0.98
NCI-H650	1.03
LK-2	1.05
NCI-H2228	0.933
NCI-H1944	0.982
HARA	0.866
Calu-6	0.799
COR-L23	0.977
LXF-289	0.982
EBC-1	0.602
NCI-H358	0.785
NCI-H322M	0.827

Cell Line	relative viability
LC-2-ad	0.91
HCC-827	1.04
A549	0.462
NCI-H1299	0.992
CAL-12T	0.776
HCC-15	0.99
HOP-62	0.956
NCI-H460	0.78
LU99A	1.11
NCI-H2085	0.992
A-427	0.766
NCI-H520	0.999
NCI-H838	0.734
NCI-H1792	0.905
NCI-H596	0.963
NCI-H3122	0.991
